From patent US6956059B2, “Anti-inflammatory and immunomodulatory amino acid derivatives, their preparation and use” (Croda International, plc, priority 2001, dated 2005) come the findings set out here.

The data set has as its system blood-brain barrier. In words: transport across the blood-brain barrier (methodology of Dehouck et al); cytotoxicity observation. Format: cell-based. The settings on record: used at the concentration of 5 μm/l; blood-brain barrier transport experiments. As for the experimental part:
In accordance with the methodology described by Dehouck et al in J Cont Rel 81-91 (1992), experiments were performed to study the transport of the compound of Example 2 across the blood-brain barrier.

On to `CCCCCCCC/C=C\CCCCCCCCCCCCCC(=O)NCCCC[C@H](NC(=O)CCCCCCCCCCCCC/C=C\CCCCCCCC)C(=O)OCC` [Example 2, Nα,Nε-di-(z-15-tetracosenoyl)-L-lysine ethyl ester], for which the cytotoxicity entry is recorded as “not cytotoxic”.
